Reference: publication PMC6656724 (Communications Biology, 2019)

Legend:
[1] = Brain tissue binding (equilibrium dialysis); assay type: in vitro ADME; details: mouse, brain homogenate
Protocol: tissues were diluted (brain: 1:10, w/v; liver: 1:10,000, w/v) with Krebs buffer containing 100 mM Tris-HCl (pH 8.1), 10 mM KCl and 1 mM EDTA, and sonicated.
80 µl of the resulting tissue homogenates were incubated for 40 min at 37 °C with 20 µl aliquots of aqueous solutions of the test compounds (or water in controls), 10 µM kynurenine, 1 mM NADPH, 3 mM glucose-6-phosphate and 1U/ml glucose-6-phosphate dehydrogenase in a total volume of 200 µl. The reaction was terminated by the addition of 50 µl of 6% perchloric acid, the denatured proteins were removed by centrifugation, and newly synthesized 3-HK was quantified by HPLC with electrochemical detection (Coulochem 5100A; ESA, Chelmsford, MA) at an oxidation potential of […].
The methodology employed was a modification of that reported previously20. […]
for 1 minute and then centrifuged at 3000 rpm in 96-well blocks for 15 minutes (Allegra X12-R, Beckman Coulter, USA). All samples were analysed by means of UPLC/MS/MS on a Xevo TQs micro Mass Spectrometer (Waters Corporation, USA).
The unbound fraction was determined as the ratio of the peak area in artificial CSF to that in brain, with correction for dilution factor according to equation (5)21, […]
((1/f ! ,!""!#$%& ) − 1) + 1/D where D = dilution factor in brain homogenate and fu,apparent is the measured free fraction of diluted brain homogenate. […]

[2] = Stability in rat hepatocytes
Protocol: Rat hepatocyte compound stability assays were performed using cryopreserved vials of rat cryopreserved hepatocytes (Life Technologies), which were thawed according to manufacturer’s instructions and resuspended in Williams Medium E (WME) containing cell maintenance supplement pack (CM4000, Life
Technologies). Hepatocytes were incubated in suspension (0.5 million cells/mL) in 48 well non-collagen coated cell culture plates for 10 minutes at 37 °C, 5%
CO2. Upon addition of an equal volume of supplemented WME containing 1 mM test compound, an aliquot of incubation solution was removed to acetonitrile containing internal standard (final concentration 0.5 mM test compound and a cell density of 0.25 million cells/mL). Similarly, aliquots were removed at 3,6,9,15,30,45,60,90 and
100 mL of 80:20 water:acetonitrile was added to all samples and the analysis plate was centrifuged for 10 minutes at room temperature prior to injection and analysis of samples by UPLC-MS/MS using a Xevo TQs micro (Waters corporation, USA). XLfit (IDBS, UK) was used to calculate the exponential decay and consequently the rate constant (k) from the ratio of peak area of test compound to internal standard at each timepoint. The rate of intrinsic clearance (CLi) was then
1.10 Rat hepatocyte stability […]
internal standard at each timepoint. The calculated hepatocyte intrinsic clearance […]

[3] = biological target: T1, PfKMO (Pseudomonas fluorescens, UniProt Q84HF5, C252S/C461S); experiment: biochemical
T1 construct: made in house; host or cells: E. coli BL21 (DE3)
Protocol: saturating concentrations of the L-KYN and NADPH substrates. Data are plotted […]
consumption of NADPH at 340 nm upon addition of enzyme via a Cary 50 UV-Vis spectrophotometer (Agilent Technologies). Rates were determined from linear regression fits to the initial linear portion of the curves. All measurements were performed in triplicate. The IC50 values for inhibitors were obtained by plotting the percentage inhibition versus the inhibitor concentration and fitting to the Morrison equation16 (equation 1) using Origin 9.0 Software (OriginLab, Northampton, MA).
E + I + K!"" − E + I + K!"" ! − 4[E][I] where v0 is the enzyme activity without inhibitor, vi is the enzyme activity with ligand concentration [I], [E] is the enzyme concentration, [I] is the inhibitor concentration, K!"" is the apparent inhibition constant and IC = K!"" + [!] . If K!"" ≫ [!], IC ≈ […]
where Ki is the inhibition constant, [S] is the substrate concentration used in the assay and Km is the Michaelis-Menten constant17. […]
between Ki and Ki apparent values, as the conditions for measuring IC50 are different, Ki values can be used to compare with other reported KMO inhibitors.
Steady-state kinetic parameters for PfKMO were calculated by measuring initial rates […]
the observed rate of turnover (v) versus the varied substrate concentration were fitted to equation 2 using Origin 9.0 Software (OriginLab, Northampton, MA).
A B + K!! B + K!! A + K!!K!! where v is the initial rate of activity, Vmax is the maximum velocitie of the reaction, [A] and [B] are the substrate concentration, K!! and K!! are the Michaelis-Menten constant for different substrate and K!! is the inhibition (binding) constant of substrate A to the free enzyme while forming transitory complexes.18
Product inhibition studies were carried out by measuring reaction rates at varying […]
one substrate and varying concentrations of the other substrate. Inhibition studies with target compounds were carried out by measuring reaction rates at varying inhibitor concentrations at saturating concentrations of one substrate and varying concentrations of the other substrate. […]
were used to distinguish between different types of inhibition. The data were fitted to a straight line defined by the Lineweaver-Burke equation (equation 4), with the y intercept providing 1/Vmax and the x intercept giving -1/Km. […]

T1 sequence (Q84HF5 whole entry C252S/C461S): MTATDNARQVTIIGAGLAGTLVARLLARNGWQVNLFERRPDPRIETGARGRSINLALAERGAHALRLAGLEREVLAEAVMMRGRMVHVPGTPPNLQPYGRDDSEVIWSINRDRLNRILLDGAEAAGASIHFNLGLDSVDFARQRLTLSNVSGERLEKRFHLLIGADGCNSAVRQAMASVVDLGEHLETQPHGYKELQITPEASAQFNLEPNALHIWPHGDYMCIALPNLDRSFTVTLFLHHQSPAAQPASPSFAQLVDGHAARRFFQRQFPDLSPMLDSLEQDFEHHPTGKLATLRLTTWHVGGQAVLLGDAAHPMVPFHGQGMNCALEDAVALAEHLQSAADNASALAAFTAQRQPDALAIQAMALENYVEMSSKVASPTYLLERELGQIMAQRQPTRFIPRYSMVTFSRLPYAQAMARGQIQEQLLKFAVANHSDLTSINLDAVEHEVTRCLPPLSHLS

Work on CCOC(=O)CN1C(=O)COc2cc(C)c(Cl)c(C)c21 [1b] yielded a fraction unbound at 5 h, 10 µg/g [1] of 0.016 and a Mean intrinsic clearance [2] greater than 50 mL/min/g liver.
Cc1cc2c(c(C)c1Cl)N(Cc1nn[nH]n1)C(=O)CO2 [1h, 6-chloro-5,7-dimethyl-4-(2H-tetrazol-5-ylmethyl)-1,4-benzoxazin-3-one] showed a Ki [3] of 1.06 ± 0.04 µM.
In the case of Cc1cc2c(c(C)c1Cl)N(CC(=O)O)C(=O)CO2 [compound 1, (6-chloro-5,7-dimethyl-3-oxo-2,3-dihydro-4H-1,4-benzoxazin-4-yl) acetic acid], the “Mechanism of inhibition with respect to L-KYN” value ([3]; PfKMO) is reported as “competitive inhibitor”, the “Mechanism of inhibition with respect to NADPH” value ([3]; PfKMO) is reported as “mixed type inhibitors” and the fraction unbound at 5 h, 10 µg/g [1] is reported as 0.3. For the same compound, the Mean intrinsic clearance [2] was 0.8 mL/min/g liver.
